Assay results: paper PMC4685510, “A Cell Biologist’s Field Guide to Aurora Kinase Inhibitors” (Frontiers in Oncology, 2015)
Where two headings read alike, the source gives them in different places.

Key:
Test in all cases: biochemical
Assay type in all cases: biochemical
[1] = biological target: T1, 363 human kinases (including Aurora A/B/C) (Homo sapiens, UniProt Q99683); details: ASK1/MAP3K5, [ATP] 100 µM; for remaining activity at 0.1 µM: 100 nM; for remaining activity at 0.1 µM / remaining activity at 0.5 µM: read-out: % Enzyme Activity (relative to DMSO controls)
T1 sequence (Q99683 1-1374): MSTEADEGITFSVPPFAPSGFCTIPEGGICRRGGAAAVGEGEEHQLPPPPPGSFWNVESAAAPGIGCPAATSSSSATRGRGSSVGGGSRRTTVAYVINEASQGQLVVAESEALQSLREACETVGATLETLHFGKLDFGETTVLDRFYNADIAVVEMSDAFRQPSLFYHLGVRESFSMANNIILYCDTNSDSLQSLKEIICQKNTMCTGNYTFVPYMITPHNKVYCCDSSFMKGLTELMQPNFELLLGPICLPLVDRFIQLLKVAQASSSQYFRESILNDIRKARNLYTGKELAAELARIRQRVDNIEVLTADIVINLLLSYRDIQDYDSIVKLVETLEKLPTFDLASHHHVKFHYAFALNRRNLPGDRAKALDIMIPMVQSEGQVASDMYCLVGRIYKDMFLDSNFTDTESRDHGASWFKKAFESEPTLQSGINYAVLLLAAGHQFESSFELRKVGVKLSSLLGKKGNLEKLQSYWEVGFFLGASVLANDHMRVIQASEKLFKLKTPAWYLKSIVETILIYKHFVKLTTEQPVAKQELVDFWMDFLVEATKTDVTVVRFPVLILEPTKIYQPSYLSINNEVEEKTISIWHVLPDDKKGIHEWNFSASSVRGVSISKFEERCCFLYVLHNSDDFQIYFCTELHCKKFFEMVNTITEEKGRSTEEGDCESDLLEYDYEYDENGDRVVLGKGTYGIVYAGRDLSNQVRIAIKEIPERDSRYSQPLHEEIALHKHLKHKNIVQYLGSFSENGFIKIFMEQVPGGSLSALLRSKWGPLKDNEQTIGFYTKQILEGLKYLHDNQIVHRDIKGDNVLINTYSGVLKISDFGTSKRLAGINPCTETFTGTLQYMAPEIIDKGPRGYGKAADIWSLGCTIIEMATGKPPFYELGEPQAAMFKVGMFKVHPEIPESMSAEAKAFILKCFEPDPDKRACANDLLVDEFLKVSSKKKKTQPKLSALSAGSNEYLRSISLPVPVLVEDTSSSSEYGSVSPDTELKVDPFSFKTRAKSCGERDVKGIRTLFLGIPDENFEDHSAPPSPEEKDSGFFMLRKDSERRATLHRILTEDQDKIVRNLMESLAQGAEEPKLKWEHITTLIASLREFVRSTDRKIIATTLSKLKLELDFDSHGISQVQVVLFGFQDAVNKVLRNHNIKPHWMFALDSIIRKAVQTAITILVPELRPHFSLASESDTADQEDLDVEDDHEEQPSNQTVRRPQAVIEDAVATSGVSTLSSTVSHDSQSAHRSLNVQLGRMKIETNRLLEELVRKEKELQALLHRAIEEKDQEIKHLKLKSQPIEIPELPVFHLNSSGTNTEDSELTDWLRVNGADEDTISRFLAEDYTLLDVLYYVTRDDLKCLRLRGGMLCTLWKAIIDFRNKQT
Text: (§1) However, the Aurora A/B selectivity ratios derived from our in vitro and in vivo data can be compared to prioritize inhibitors.

[2] = biological target: T2, 363 human kinases (including Aurora A/B/C) (Homo sapiens, UniProt Q06418); details: TYRO3/SKY; for remaining activity at 0.1 µM: 100 nM; for remaining activity at 0.1 µM / remaining activity at 0.5 µM: read-out: % Enzyme Activity (relative to DMSO controls)
T2 sequence (Q06418 41-890): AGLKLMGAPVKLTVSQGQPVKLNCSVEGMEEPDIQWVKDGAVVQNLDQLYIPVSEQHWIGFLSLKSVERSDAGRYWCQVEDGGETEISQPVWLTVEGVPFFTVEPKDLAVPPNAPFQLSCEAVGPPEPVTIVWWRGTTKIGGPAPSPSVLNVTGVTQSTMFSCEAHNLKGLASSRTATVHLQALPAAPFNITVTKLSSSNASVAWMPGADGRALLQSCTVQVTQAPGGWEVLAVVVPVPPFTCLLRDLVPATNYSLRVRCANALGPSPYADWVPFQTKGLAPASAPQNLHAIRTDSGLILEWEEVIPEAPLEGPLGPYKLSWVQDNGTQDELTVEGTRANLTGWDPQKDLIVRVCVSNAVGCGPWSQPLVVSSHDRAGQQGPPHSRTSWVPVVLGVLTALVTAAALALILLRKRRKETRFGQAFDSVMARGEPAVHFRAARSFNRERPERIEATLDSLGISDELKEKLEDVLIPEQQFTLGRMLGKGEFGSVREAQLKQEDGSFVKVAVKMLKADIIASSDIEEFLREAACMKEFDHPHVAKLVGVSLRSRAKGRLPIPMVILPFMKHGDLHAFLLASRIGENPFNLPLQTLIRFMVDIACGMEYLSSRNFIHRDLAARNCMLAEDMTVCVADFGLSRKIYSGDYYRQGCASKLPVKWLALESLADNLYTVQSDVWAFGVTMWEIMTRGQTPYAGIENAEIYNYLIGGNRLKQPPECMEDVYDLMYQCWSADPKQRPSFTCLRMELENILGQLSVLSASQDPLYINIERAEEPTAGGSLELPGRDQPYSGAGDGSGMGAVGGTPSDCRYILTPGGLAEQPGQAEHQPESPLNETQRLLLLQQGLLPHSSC
Text: as §1

[3] = biological target: 363 human kinases (including Aurora A/B/C) (Homo sapiens, UniProt Q00535); details: for remaining activity at 0.1 µM: 100 nM; for remaining activity at 0.1 µM / remaining activity at 0.5 µM: read-out: % Enzyme Activity (relative to DMSO controls); for remaining activity at 0.5 µM / % Enzyme Activity (relative to DMSO controls): 500 nM
Text: as §1

[4] = biological target: 363 human kinases (including Aurora A/B/C) (Homo sapiens, UniProt P07949); details: RET; for remaining activity at 0.1 µM: 100 nM; for remaining activity at 0.1 µM / remaining activity at 0.5 µM: read-out: % Enzyme Activity (relative to DMSO controls)
Text: as §1

[5] = biological target: 363 human kinases (including Aurora A/B/C) (Homo sapiens, UniProt Q00537); details: CDK17/cyclin Y (PCTK2), [ATP] 50 µM; for remaining activity at 0.1 µM: 100 nM; for remaining activity at 0.1 µM / remaining activity at 0.5 µM: read-out: % Enzyme Activity (relative to DMSO controls)
Text: as §1

[6] = biological target: 363 human kinases (including Aurora A/B/C) (Homo sapiens, UniProt P51957); details: NEK4; for remaining activity at 0.1 µM: 100 nM; for remaining activity at 0.1 µM / remaining activity at 0.5 µM: read-out: % Enzyme Activity (relative to DMSO controls)
Text: as §1

[7] = biological target: 363 human kinases (including Aurora A/B/C) (Homo sapiens, UniProt P57059); details: SIK1; for remaining activity at 0.1 µM: 100 nM; for remaining activity at 0.1 µM / remaining activity at 0.5 µM: read-out: % Enzyme Activity (relative to DMSO controls)
Sequence of 363 human kinases (including Aurora A/B/C) (Homo sapiens, UniProt P57059) (P57059 whole entry): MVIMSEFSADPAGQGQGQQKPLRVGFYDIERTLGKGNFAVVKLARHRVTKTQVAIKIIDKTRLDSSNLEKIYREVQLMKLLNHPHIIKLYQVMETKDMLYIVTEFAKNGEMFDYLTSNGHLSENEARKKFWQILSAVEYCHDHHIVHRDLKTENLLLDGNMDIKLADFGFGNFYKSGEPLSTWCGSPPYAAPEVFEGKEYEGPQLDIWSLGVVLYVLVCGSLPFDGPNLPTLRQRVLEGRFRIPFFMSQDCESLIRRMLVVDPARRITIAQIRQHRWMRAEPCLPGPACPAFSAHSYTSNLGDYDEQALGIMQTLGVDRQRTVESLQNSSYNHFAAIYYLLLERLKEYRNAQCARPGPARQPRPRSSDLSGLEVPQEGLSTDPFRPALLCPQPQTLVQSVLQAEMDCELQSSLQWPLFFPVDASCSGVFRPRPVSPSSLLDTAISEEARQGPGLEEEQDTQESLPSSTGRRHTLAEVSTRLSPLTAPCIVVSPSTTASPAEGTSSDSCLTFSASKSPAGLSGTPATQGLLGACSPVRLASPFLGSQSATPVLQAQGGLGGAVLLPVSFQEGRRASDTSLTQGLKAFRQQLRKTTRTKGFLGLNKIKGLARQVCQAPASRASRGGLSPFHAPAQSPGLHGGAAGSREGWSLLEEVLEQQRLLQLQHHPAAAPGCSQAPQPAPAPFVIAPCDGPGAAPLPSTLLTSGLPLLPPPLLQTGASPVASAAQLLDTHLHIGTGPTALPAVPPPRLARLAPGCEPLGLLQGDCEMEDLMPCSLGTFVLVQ
Text: as §1

Sequence of 363 human kinases (including Aurora A/B/C) (Homo sapiens, UniProt P07949) (P07949 29-1114): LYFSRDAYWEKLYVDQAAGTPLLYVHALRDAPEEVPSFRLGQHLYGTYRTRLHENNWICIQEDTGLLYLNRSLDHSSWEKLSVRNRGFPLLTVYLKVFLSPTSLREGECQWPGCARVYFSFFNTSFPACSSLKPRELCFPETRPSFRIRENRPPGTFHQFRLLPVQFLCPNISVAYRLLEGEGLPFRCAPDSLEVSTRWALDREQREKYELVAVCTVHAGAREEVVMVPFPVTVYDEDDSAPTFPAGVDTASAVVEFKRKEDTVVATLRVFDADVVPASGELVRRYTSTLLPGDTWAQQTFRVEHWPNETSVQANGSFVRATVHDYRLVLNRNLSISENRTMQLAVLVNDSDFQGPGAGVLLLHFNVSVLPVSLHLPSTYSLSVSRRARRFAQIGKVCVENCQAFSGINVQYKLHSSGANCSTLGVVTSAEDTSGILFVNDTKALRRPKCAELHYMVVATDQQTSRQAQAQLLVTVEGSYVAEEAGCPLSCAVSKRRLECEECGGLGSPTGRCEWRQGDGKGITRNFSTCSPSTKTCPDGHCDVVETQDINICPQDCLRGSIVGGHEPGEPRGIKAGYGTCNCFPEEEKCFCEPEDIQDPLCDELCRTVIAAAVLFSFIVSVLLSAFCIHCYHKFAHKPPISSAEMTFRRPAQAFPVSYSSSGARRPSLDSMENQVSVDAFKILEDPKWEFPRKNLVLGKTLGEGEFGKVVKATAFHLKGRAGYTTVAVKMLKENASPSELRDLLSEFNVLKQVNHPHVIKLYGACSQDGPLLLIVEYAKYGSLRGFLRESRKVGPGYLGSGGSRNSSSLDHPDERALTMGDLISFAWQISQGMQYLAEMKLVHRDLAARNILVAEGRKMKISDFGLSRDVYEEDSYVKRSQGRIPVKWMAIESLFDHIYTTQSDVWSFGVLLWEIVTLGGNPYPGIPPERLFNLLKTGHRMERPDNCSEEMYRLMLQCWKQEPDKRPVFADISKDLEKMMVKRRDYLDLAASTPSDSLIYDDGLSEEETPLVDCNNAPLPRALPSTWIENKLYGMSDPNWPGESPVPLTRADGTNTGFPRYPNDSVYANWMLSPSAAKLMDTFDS
Sequence of 363 human kinases (including Aurora A/B/C) (Homo sapiens, UniProt P51957) (P51957 whole entry): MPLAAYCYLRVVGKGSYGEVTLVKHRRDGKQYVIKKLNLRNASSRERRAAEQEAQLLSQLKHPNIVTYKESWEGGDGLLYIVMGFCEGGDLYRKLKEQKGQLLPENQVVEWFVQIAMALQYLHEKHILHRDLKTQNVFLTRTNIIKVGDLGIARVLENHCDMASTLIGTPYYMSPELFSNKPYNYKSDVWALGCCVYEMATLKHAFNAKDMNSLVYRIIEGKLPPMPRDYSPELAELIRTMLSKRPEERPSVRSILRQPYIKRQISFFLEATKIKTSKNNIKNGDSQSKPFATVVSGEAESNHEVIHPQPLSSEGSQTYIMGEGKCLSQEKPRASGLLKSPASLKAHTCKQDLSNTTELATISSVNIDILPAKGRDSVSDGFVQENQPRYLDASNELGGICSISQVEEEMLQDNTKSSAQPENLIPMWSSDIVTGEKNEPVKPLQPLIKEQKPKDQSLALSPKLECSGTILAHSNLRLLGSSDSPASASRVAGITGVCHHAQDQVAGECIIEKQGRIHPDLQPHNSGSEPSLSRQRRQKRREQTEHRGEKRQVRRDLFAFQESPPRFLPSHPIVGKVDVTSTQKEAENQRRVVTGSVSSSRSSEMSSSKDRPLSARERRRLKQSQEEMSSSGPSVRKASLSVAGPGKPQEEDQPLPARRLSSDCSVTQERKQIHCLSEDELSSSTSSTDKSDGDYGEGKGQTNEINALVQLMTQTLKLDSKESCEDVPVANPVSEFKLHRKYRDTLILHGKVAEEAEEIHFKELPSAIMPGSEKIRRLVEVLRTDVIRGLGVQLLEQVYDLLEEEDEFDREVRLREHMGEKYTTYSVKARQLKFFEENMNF
Sequence of 363 human kinases (including Aurora A/B/C) (Homo sapiens, UniProt Q00535) (Q00535 whole entry): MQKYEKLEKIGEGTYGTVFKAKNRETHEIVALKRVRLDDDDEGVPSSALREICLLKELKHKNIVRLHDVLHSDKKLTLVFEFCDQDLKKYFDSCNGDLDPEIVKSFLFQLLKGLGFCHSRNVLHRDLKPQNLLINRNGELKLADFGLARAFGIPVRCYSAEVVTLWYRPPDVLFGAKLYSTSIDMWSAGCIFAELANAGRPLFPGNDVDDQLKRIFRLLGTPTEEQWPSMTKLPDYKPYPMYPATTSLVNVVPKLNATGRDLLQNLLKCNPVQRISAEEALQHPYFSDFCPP
Sequence of 363 human kinases (including Aurora A/B/C) (Homo sapiens, UniProt Q00537) (Q00537 whole entry): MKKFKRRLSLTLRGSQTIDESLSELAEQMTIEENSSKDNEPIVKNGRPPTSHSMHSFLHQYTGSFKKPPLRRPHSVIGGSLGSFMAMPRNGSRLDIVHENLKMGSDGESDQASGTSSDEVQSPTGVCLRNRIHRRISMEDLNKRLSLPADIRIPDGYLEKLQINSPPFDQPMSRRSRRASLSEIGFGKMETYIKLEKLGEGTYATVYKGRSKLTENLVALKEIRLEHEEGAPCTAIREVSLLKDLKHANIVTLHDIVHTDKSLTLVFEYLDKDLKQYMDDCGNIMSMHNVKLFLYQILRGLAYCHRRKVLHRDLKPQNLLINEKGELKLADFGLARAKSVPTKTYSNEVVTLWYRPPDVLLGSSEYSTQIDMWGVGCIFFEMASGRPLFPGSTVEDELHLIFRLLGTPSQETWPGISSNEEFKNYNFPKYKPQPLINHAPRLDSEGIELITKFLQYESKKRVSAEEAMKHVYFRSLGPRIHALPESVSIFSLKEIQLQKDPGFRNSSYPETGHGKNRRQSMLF

Compound | remaining activity at 0.1 µM [1] | remaining activity at 0.1 µM [2] | remaining activity at 0.1 µM ([3]; CDK5/p25, [ATP] 50 µM) | remaining activity at 0.1 µM ([3]; CDK5/p35, [ATP] 100 µM) | remaining activity at 0.1 µM [4] | remaining activity at 0.1 µM [5] | remaining activity at 0.1 µM [6] | remaining activity at 0.1 µM [7] | remaining activity at 0.5 µM ([1]; 500 nM) | remaining activity at 0.5 µM ([2]; 500 nM) | remaining activity at 0.5 µM ([3]; CDK5/p25, [ATP] 50 µM) | remaining activity at 0.5 µM ([3]; CDK5/p35, [ATP] 100 µM) | remaining activity at 0.5 µM ([4]; 500 nM) | remaining activity at 0.5 µM ([5]; 500 nM) | remaining activity at 0.5 µM ([6]; 500 nM) | remaining activity at 0.5 µM ([7]; 500 nM) | also measured
CCn1cc(-c2ccnc3[nH]c(-c4cccc(CN(C)C)c4)cc23)c(-c2ccc(NC(=O)N(C)C)cc2)n1 [GSK1070916] | 79.6% | 83.8% | 91.8% | 111% | 97.8% | 90.9% | 111% | 40.7% | – | – | – | – | – | – | – | – | –
O=C(O)[C@]1(Cc2cccc(Nc3nccs3)n2)CC[C@@H](Oc2cccc(Cl)c2F)CC1 [MK-5108] | 85.6% | 75.9% | 95.8% | 95.7% | 17.4% | 95.4% | 96.7% | 103% | 73.8% | 40.6% | 75.3% | 90% | 3.79% | 81.9% | 113% | 54.4% | –
O=C(c1cccc(Cl)c1F)N1CCN(Cc2cccc(Nc3nccs3)n2)CC1 [MK-8745] | – | – | – | – | – | – | – | – | 78.7% | 29.3% | 88.5% | 94.6% | 84.5% | 87% | 107% | 95.7% | % Enzyme Activity (relative to DMSO controls) ([1]; 500 nM): 78.24%; % Enzyme Activity (relative to DMSO controls) ([2]; 500 nM): 27.58%; % Enzyme Activity (relative to DMSO controls) ([3]; CDK5/p25, [ATP] 50 µM): 87.84%; % Enzyme Activity (relative to DMSO controls) ([3]; CDK5/p35, [ATP] 100 µM): 93.11%; % Enzyme Activity (relative to DMSO controls) ([4]; 500 nM): 84.03%; % Enzyme Activity (relative to DMSO controls) ([5]; 500 nM): 86.82%; % Enzyme Activity (relative to DMSO controls) ([6]; 500 nM): 103.20%; % Enzyme Activity (relative to DMSO controls) ([7]; 500 nM): 93.78%
